Assay results from ChEMBL document CHEMBL1139055, “Structure-activity relationships of pentacycloundecylamines at the N-methyl-d-aspartate receptor” (Bioorg Med Chem, 2007).
Active and inactive are the calls of the source. The calls are words filed in the database; no cut-off is given here.

Columns and labels:
Mus musculus [1] = organism: Mus musculus; assay: Displacement of [3H]MK-801 from NMDA receptor in ICR mouse synaptoneurosome at 100 uM
[2] = Antagonist activity at NMDA receptor in ICR mouse synaptoneurosome assessed as inhibition of NMDA/Gly-mediated 45-calcium influx; type: functional
Mus musculus [3] = organism: Mus musculus; assay: Displacement of [3H]TCP from NMDA receptor in ICR mouse synaptoneurosome at 100 uM
Mus musculus [4] = organism: Mus musculus; assay: Displacement of [3H]glutamate from NMDA receptor in ICR mouse synaptoneurosome
[5] = Antagonist activity at NMDA receptor in ICR mouse synaptoneurosome assessed as inhibition of NMDA/Gly-mediated 45-calcium influx at 2 uM relative to control; type: functional

c1ccc(CCNC23OC4C5C6CC(C7C6C4C72)C53)cc1 (configuration not stated)
Activity (Mus musculus [1]): inactive
IC50 [2]: 23.5 µM
Activity (Mus musculus [3]): 44%

NC1C2C3CC4C1C1C2CC3C41 (configuration not stated)
Activity (Mus musculus [4]): inactive
Activity (Mus musculus [1]): inactive
IC50 [2]: 4.06 µM
Activity (Mus musculus [3]): inactive

CC12CC3CC(C)(C1)CC(N)(C3)C2 [MEMANTINE]
Activity (Mus musculus [1]): 90%
IC50 [2]: 3.05 µM
Activity (Mus musculus [3]): 67%

C[C@]12N[C@H](Cc3ccccc31)c1ccccc12 [DIZOCILPINE]
Activity (Mus musculus [1]): 73%
IC50 [2]: 1.23 µM
Activity (Mus musculus [3]): 65%

O=[N+]([O-])c1ccccc1CNC12OC3C4C5CC(C6C5C3C61)C42 (configuration not stated)
IC50 [2]: 37.6 µM

COc1cccc(CNC23OC4C5C6CC(C7C6C4C72)C53)c1 (configuration not stated)
IC50 [2]: 20.7 µM

c1ccc(CNC23OC4C5C6CC(C7C6C4C72)C53)cc1 (configuration not stated)
Inhibition [5]: 108.9%
Activity (Mus musculus [4]): inactive
Activity (Mus musculus [1]): inactive
IC50 [2]: 2.98 µM
Activity (Mus musculus [3]): 20%

O=[N+]([O-])c1cccc(CNC23OC4C5C6CC(C7C6C4C72)C53)c1 (configuration not stated)
IC50 [2]: 32.8 µM

OC12CC3C4C5CC6C4C3C1C(NCc1ccccc1)C6C52 (configuration not stated)
IC50 [2]: 36.2 µM
